Laboratory results as given in patent publication US9115139B2, “Pyrazinooxazepine derivatives” (TAKEDA PHARMACEUTICAL COMPANY LIMITED, priority 2009, dated 2015).

Target: serotonin 5-HT2C receptor (VSV type isoform, stably expressing CHO cell) (Homo sapiens, UniProt P28335, I156V/I160V/N158S)
Format: cell-based

Chain of serotonin 5-HT2C receptor (VSV type isoform, stably expressing CHO cell) (P28335 33-458 I156V/N158S/I160V limits assumed): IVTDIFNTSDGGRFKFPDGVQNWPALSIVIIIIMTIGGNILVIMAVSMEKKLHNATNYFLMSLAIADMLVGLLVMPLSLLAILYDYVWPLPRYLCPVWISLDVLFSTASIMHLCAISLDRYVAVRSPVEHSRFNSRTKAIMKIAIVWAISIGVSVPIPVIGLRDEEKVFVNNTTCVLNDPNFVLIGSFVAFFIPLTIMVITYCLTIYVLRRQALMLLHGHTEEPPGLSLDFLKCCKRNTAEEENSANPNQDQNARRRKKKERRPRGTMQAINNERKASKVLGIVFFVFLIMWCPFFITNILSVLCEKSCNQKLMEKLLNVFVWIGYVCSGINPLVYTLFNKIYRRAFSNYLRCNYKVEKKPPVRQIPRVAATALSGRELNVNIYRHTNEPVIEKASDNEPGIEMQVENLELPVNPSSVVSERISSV

SMILES | ratio (%) relative to maximum response by 5-HT (1 μM) [%]
CC(C)Oc1cnc2c(n1)OCCNC2.Cl [Example 2, 3-(1-methylethoxy)-6,7,8,9-tetrahydropyrazino[2,3-f][1,4]oxazepine hydrochloride] | 93
C[C@@H]1COCCN1c1cnc2c(n1)OCCNC2.Cl [Example 5, 3-[(3R)-3-methylmorpholin-4-yl]-6,7,8,9-tetrahydropyrazino[2,3-f][1,4]oxazepine hydrochloride] | 95
Cl.c1nc2c(nc1C1CC1)OCCNC2 [Example 10, 3-cyclopropyl-6,7,8,9-tetrahydropyrazino[2,3-f][1,4]oxazepine hydrochloride] | 89
CC(C)N(C)c1cnc2c(n1)OCCNC2.Cl [Example 8, N-methyl-N-(1-methylethyl)-6,7,8,9-tetrahydropyrazino[2,3-f][1,4]oxazepin-3-amine hydrochloride] | 95
